Assay results published in US20040121316A1 (priority 2002, published 2004).
Like-named read-outs stand apart in the source and are kept apart here.

Test system: wild-type HIV-1 strain IIIB
Experiment: microbe, parasite or virus in culture
Type: cell-based
Set-up: scale not given here
[1] = Human immunodeficiency virus 1, IIIB
[2] = Human immunodeficiency virus 1, IIIB, MT2, 120 h, read-out: Anti-HIV-1 Cell Culture Activity EC50

| Compound | EC50 [1] | EC50 (read-out: EC50) | also measured |
| --- | --- | --- | --- |
| CC(C)CN(CC(O)C(Cc1ccc(OCP(=O)(O)O)cc1)NC(=O)OC1COC2OCCC12)S(=O)(=O)N1CCN(C)CC1 (stereo not shown) | > 5 µM | – | – |
| COc1ccc(S(=O)(=O)N(CC(C)C)CC(O)C(Cc2ccccc2)NC(=O)OC2COC3OCCC23)cc1OCP(=O)(OCc1ccccc1)OCc1ccccc1 (stereo not shown) | 0.5 to 5 µM | – | – |
| CCOC(=O)CNP(=O)(COc1ccc(CC(NC(=O)OC2COC3OCCC23)C(O)CN(CC(C)C)S(=O)(=O)c2ccc(OC)cc2)cc1)NCC(=O)OCC (stereo not shown) [Compound 16a] | – | – | EC50 [2]: 0.33 ± 0.23 µM |
| CCCCOC(=O)C(CC)NP(=O)(COc1ccc(CC(NC(=O)OC2COC3OCCC23)C(O)CN(CC(C)C)S(=O)(=O)c2ccc(OC)cc2)cc1)NC(CC)C(=O)OCCCC (stereo not shown) [Example 16f] | – | – | EC50 [2]: 0.0048 ± 0.0018 µM |
| CCCCOC(=O)C(CC(C)C)NP(=O)(COc1ccc(CC(NC(=O)OC2COC3OCCC23)C(O)CN(CC(C)C)S(=O)(=O)c2ccc(OC)cc2)cc1)NC(CC(C)C)C(=O)OCCCC (stereo not shown) [Example 16h] | – | – | EC50 [2]: 0.12 ± 0.042 µM |
| CCOC(=O)C(CC)NP(=O)(COc1ccc(CC(NC(=O)OC2COC3OCCC23)C(O)CN(CC(C)C)S(=O)(=O)c2ccc(OC)cc2)cc1)Oc1ccccc1 (stereo not shown) [Example 16576] | – | 0.0126 ± 0.0048 µM | – |
| COc1ccc(S(=O)(=O)N(CC(C)C)C[C@@H](O)[C@H](Cc2ccc(OCP(=O)(O)O)cc2)NC(=O)O[C@H]2CO[C@H]3OCC[C@H]32)cc1 [GS8373] | – | 4.8 µM | – |
| CC(C)CN(C[C@@H](O)[C@H](Cc1ccc([N+](=O)[O-])cc1)NC(=O)O[C@H]1CO[C@H]2OCC[C@H]21)S(=O)(=O)c1ccc(OCP(=O)(Oc2ccccc2)Oc2ccccc2)cc1 [NO2, phenol] | – | < 0.05 µM | – |
| CC(C)CN(CC(O)C(Cc1ccc(OCCN(C)C)cc1)NC(=O)OC1COC2OCCC12)S(=O)(=O)c1ccc(OCP(=O)(OCc2ccccc2)OCc2ccccc2)cc1 (stereo not shown) [OC2H4-NMe2, OBn] | – | 0.05 to 0.5 µM | – |
| CC(C)CN(CC(O)C(Cc1ccc(OCCN(C)C)cc1)NC(=O)OC1COC2OCCC12)S(=O)(=O)c1ccc(OCP(=O)(O)O)cc1 (stereo not shown) [OC2H4NMe2, OH] | – | 0.5 to 5 µM | – |
| CC(C)CN(CC(O)C(Cc1ccc(O)cc1)NC(=O)OC1COC2OCCC12)S(=O)(=O)c1ccc(OCP(=O)(OCc2ccccc2)OCc2ccccc2)cc1 (stereo not shown) [OH, OBn] | – | 0.05 to 0.5 µM | – |
| CC(C)CN(CC(O)C(Cc1ccc(O)cc1)NC(=O)OC1COC2OCCC12)S(=O)(=O)c1ccc(OCP(=O)(O)O)cc1 (stereo not shown) [OH, OH] | – | > 5 µM | – |
| COc1ccc(S(=O)(=O)N(CC(C)C)C[C@@H](OP(=O)(O)O)[C@H](Cc2ccccc2)NC(=O)O[C@H]2CO[C@H]3OCC[C@H]32)cc1 [Phosphate prodrug of 94-003] | – | < 0.05 µM | – |
| CC(C)CN(C[C@@H](OP(=O)(O)O)[C@H](Cc1ccccc1)NC(=O)O[C@H]1CCOC1)S(=O)(=O)c1ccc(N)cc1 [Phosphate prodrug of ampenavir] | – | 0.05 to 0.5 µM | – |
| CC(C)CN(C[C@@H](O)[C@H](Cc1ccccc1)NC(=O)O[C@H]1CO[C@H]2OCC[C@H]21)S(=O)(=O)c1ccc(N)cc1 [TMC114, reference compound] | < 0.05 µM | – | – |
| COc1ccc(S(=O)(=O)N(CC(C)C)CC(O)C(Cc2ccc(OCP(=O)(OCC(F)(F)F)OCC(F)(F)F)cc2)NC(=O)OC2COC3OCCC23)cc1 (stereo not shown) [drawing 608 R1=OCH2CF3 R2=OCH2CF3] | > 5 µM | – | – |
| CCOP(=O)(COc1ccc(CC(NC(=O)OC2COC3OCCC23)C(O)CN(CC(C)C)S(=O)(=O)c2ccc(OC)cc2)cc1)OCC (stereo not shown) [drawing 608 R1=OEt R2=OEt] | < 0.05 µM | – | – |
| COc1ccc(S(=O)(=O)N(CC(C)C)CC(O)C(Cc2ccc(OCP(=O)(OC)OC)cc2)NC(=O)OC2COC3OCCC23)cc1 (stereo not shown) [drawing 608 R1=OMe R2=OMe] | < 0.05 µM | – | – |
| COc1ccc(S(=O)(=O)N(CC(C)C)CC(O)C(Cc2ccc(OCP(=O)(OC(C)C)OC(C)C)cc2)NC(=O)OC2COC3OCCC23)cc1 (stereo not shown) [drawing 608 R1=OiPr R2=OiPr] | < 0.05 µM | – | – |
| CCOP(=O)(COc1ccc(CC(NC(=O)OC2COC3OCCC23)C(O)CN(CC(C)C)S(=O)(=O)c2ccc(O)cc2)cc1)OCC (stereo not shown) [drawing 609 R1=Et R2=Et] | < 0.05 µM | – | – |
| CC(C)CN(CC(O)C(Cc1ccc(OCP(=O)(O)O)cc1)NC(=O)OC1COC2OCCC12)S(=O)(=O)c1ccc(O)cc1 (stereo not shown) [drawing 609 R1=OH R2=OH] | 0.5 to 5 µM | – | – |
| CCCCOC(=O)C(C)NP(=O)(COc1ccc(CC(NC(=O)OC2COC3OCCC23)C(O)CN(CC(C)C)S(=O)(=O)c2ccc(OC)cc2)cc1)NC(C)C(=O)OCCCC (stereo not shown) [drawing 612 R1=Ala-Bu R2=Ala-Bu] | < 0.05 µM | – | – |
| CCCCOC(=O)CNP(=O)(COc1ccc(CC(NC(=O)OC2COC3OCCC23)C(O)CN(CC(C)C)S(=O)(=O)c2ccc(OC)cc2)cc1)NCC(=O)OCCCC (stereo not shown) [drawing 612 R1=Gly-Bu R2=Gly-Bu] | < 0.05 µM | – | – |
| CCOC(=O)CNP(=O)(COc1ccc(CC(NC(=O)OC2COC3OCCC23)C(O)CN(CC(C)C)S(=O)(=O)c2ccc(OC)cc2)cc1)NCC(=O)OCC (stereo not shown) [drawing 612 R1=Gly-Et R2=Gly-Et] | 0.05 to 0.5 µM | – | – |
| CCOC(=O)C(CC(C)C)NP(=O)(COc1ccc(CC(NC(=O)OC2COC3OCCC23)C(O)CN(CC(C)C)S(=O)(=O)c2ccc(OC)cc2)cc1)NC(CC(C)C)C(=O)OCC (stereo not shown) [drawing 612 R1=Leu-Et R2=Leu-Et] | < 0.05 µM | – | – |
| COc1ccc(S(=O)(=O)N(CC(C)C)CC(O)C(Cc2ccc(OCP(=O)(O)NC(C)C(=O)O)cc2)NC(=O)OC2COC3OCCC23)cc1 (stereo not shown) [drawing 614 R1=OH R2=Ala-OH] | > 5 µM | – | – |
| CCOP(=O)(CCNCc1ccc(CC(NC(=O)OC2COC3OCCC23)C(O)CN(CC(C)C)S(=O)(=O)c2ccc(OC)cc2)cc1)OCC (stereo not shown) [drawing 619 R1=Et R2=Et] | – | – | EC50: + + + |
| COc1ccc(S(=O)(=O)N(CC(C)C)CC(O)C(Cc2ccc(CNCCP(=O)(O)O)cc2)NC(=O)OC2COC3OCCC23)cc1 (stereo not shown) [drawing 619 R1=H R2=H] | > 5 µM | – | – |
